Data set [1] is described as follows: Solubility model Example 4: calcium analysis by Atomic Absorption Spectroscopy. Particulars: for Calcium analysis After Storage: 1.5% additive, 14 days at 7° C., filtered supernatant. On the procedure:
(§1) Demineralized water (60° C.) was then added to the flask to obtain a final weight of 100 g and the flask was stirred to dissolve the calcium lactate powder. Subsequently a piece of 1.5×3 cm sand paper was added to the flask to provide a nucleation site for calcium lactate crystal formation and the flask was sealed with a rubber stopper.
(§2) After preparation a sample of each solution was collected.
(§3) Subsequently all solutions were stored at 7° C. for 14 days. After 14 days the flasks were visually inspected for the presence of crystals on the sand paper and the solutions were filtered at 7° C. through filter paper (Whatman 4; Whatman International Ltd., Maidstone, England).
(§4) The supernatant and the sample collected prior to storage were analyzed for lactic acid using High Performance Liquid Chromatography (HPLC) and for calcium content by Atomic Absorption Spectroscopy (AAS), providing the results reported below in Tables II and III.

Data set [2] can be described thus: Solubility model Example 3: filtrate analysis of calcium lactate solutions with sodium gluconate. The format is physicochemical. The conditions noted are these: 48 hours at about 40° F., cold filtered. The source says:
A test was run to determine the ability of ionic gluconate provided by sodium gluconate in an aqueous solution to bind with lactate over time, to thereby model the believed primary phenomenon resulting in reduced formation of calcium lactate crystal. In each sample of the model, 14.1 g of calcium lactate pentahydrate (CH3CHOHCOO)2 Ca.5H2O) was used to provide 10 g of calcium lactate (1.83 g calcium ion, 8.17 g lactate ion). Different amounts of sodium gluconate (NaC6H11O7), amounts shown in Table I below) were combined with the calcium lactate pentahydrate and diluted to 100 ml with water. The samples were prepared at room temperature and each mixed well. The samples were then refrigerated at about 40° F. for 48 hours, with each sample being mixed several times during the 48 hour holding period. After the holding period, the samples were cold filtered (40° F.) and the filtrate analyzed for lactate, gluconate and calcium concentrations.

Data set [3] can be described thus: Solubility model Example 4: lactate analysis by HPLC. The conditions noted are these: for Lactate analysis After Storage: 1.5% additive, 14 days at 7° C., filtered supernatant. On the procedure: as §1, §2, §3, §4
Data set [4] can be described thus: Solubility model Example 4: visual inspection for crystals on sand paper in calcium lactate solution. Particulars: 1.5% additive in 5.31 g calcium lactate/100 g solution, pH 6.6, 14 days at 7° C. It is filed as physicochemical. The procedure: as §1, §2, §3

Counter-ions that a name gives are not always drawn. Like-named read-outs stand apart in the source and are kept apart here.

With `O=C([O-])[C@H](O)[C@@H](O)[C@H](O)[C@H](O)CO.[Na+]` [Sodium gluconate, sodium gluconate], the “Calcium analysis After Storage” value in data set [1] stood at 1.08%. Moreover, the “FILTRATE RESULTS C6H11O7(%)” value in data set [2] (5 g NaC6H11O7 added to 14.1 g calcium lactate pentahydrate in 100 ml) is given as 2.97%; in data set [2] (10 g NaC6H11O7 added to 14.1 g calcium lactate pentahydrate in 100 ml), 7.55%; in data set [2] (15 g NaC6H11O7 added to 14.1 g calcium lactate pentahydrate in 100 ml) it was 11.15%; in data set [2] (20 g NaC6H11O7 added to 14.1 g calcium lactate pentahydrate in 100 ml) it was 14.21%; in data set [2] (25 g NaC6H11O7 added to 14.1 g calcium lactate pentahydrate in 100 ml), 16.61%. The “Lactate analysis After Storage” value in data set [3] is given as 4.41%. In data set [4], the “presence of crystals on the sand paper (visual inspection)” value (from here on “presence of crystals on the sand paper”) was “no crystals were visually observed”.
For the molecule `O=C(O)[C@H](O)[C@@H](O)[C@H](O[C@@H]1O[C@H](CO)[C@H](O)[C@H](O)[C@H]1O)[C@H](O)CO` [Sodium lactobionate, lactobionic acid], in data set [1], the “Calcium analysis Initial Concentration” value turned out to be 1.05% and the “Calcium analysis After Storage” value came out at 1.04%. In data set [3], the “Lactate analysis Initial Concentration” value came out at 4.33% and the “Lactate analysis After Storage” value worked out at 4.33%. The “presence of crystals on the sand paper” value in data set [4] is recorded as “no crystals were visually observed”.
Take `O=C(O)CC(O)C(=O)O` (stereo not drawn) [Sodium malate, malic acid disodium salt]: the “Calcium analysis Initial Concentration” value in data set [1] (0 days, 1.5 %, pH 6.6) turned out to be 1.07%. Also, in data set [1], the “Calcium analysis After Storage” value was determined as 1.06%. In data set [3] (0 days, 1.5 %, pH 6.6), the “Lactate analysis Initial Concentration” value was 4.43%. Further, the “Lactate analysis After Storage” value in data set [3] is given as 4.47%. Moreover, the “presence of crystals on the sand paper” value in data set [4] was “no crystals were visually observed”.
